Laboratory results as given in ChEMBL document CHEMBL4680193, “Isoindoline scaffold-based dual inhibitors of HDAC6 and HSP90 suppressing the growth of lung cancer in vitro and in vivo” (Eur J Med Chem, 2020).
Calls of active or inactive are those of the source. The rule behind the calls is not given here.

Columns and labels:
Histone deacetylase = type: tissue-based, Homo sapiens; details: hela
NCI-H1975 [1] = experiment: Induction of apoptosis in human NCI-H1975 cells assessed as increase in caspase 8 activation incubated for 48 hrs by PI staining based Western blot analysis; type: functional, cell-based; details: dose 0.1-3 µM
[2] = biological target: T1, Heat shock protein HSP90 (Homo sapiens) (UniProt P07900+P08238); experiment: Inhibition of HSP90 in human NCI-H1975 cells assessed as upregulation of HSP70 expression at 0.03 to 0.3 uM measured upto 24 hrs by Western blot analysis; type: cell-based; details: dose 0.03-0.3 µM, time hrs <=24
Histone deacetylase 1 = Histone deacetylase 1 (Homo sapiens, UniProt Q13547); experiment: Inhibition of recombinant human C-terminal FLAG-His-tagged HDAC1 (1 to 482 residues) expressed in Sf21 cells using RHK-K(Ac)-AMC as substrate incubated for 60 mins by fluorimetry analysis
NCI-H1975 [3] = experiment: Antitumor activity against human NCI-H1975 cells xenografted in BALB/c mouse assessed as reduction in tumor volume at 50 mg/kg, ip administered for 2 weeks and measured after 2 week; type: functional, organism-based
NCI-H1975 [4] = experiment: Induction of apoptosis in human NCI-H1975 cells assessed as increase in caspase 9 activation incubated for 48 hrs by PI staining based Western blot analysis; type: functional, cell-based; details: dose 0.1-3 µM
NCI-H1975 [5] = experiment: Antitumor activity against human NCI-H1975 cells xenografted in BALB/c mouse assessed as reduction in tumor growth at 50 mg/kg, ip administered for 2 weeks and measured after 2 week relative to control; type: functional; details: 336 h, read-out: TGI
[6] = biological target: T2, Protein deacetylase HDAC6 (Homo sapiens, UniProt Q9UBN7); experiment: Inhibition of recombinant human HDAC6 using RHK-K(Ac)-AMC as substrate by fluorescence based assay
T2 sequence (Q9UBN7 whole entry): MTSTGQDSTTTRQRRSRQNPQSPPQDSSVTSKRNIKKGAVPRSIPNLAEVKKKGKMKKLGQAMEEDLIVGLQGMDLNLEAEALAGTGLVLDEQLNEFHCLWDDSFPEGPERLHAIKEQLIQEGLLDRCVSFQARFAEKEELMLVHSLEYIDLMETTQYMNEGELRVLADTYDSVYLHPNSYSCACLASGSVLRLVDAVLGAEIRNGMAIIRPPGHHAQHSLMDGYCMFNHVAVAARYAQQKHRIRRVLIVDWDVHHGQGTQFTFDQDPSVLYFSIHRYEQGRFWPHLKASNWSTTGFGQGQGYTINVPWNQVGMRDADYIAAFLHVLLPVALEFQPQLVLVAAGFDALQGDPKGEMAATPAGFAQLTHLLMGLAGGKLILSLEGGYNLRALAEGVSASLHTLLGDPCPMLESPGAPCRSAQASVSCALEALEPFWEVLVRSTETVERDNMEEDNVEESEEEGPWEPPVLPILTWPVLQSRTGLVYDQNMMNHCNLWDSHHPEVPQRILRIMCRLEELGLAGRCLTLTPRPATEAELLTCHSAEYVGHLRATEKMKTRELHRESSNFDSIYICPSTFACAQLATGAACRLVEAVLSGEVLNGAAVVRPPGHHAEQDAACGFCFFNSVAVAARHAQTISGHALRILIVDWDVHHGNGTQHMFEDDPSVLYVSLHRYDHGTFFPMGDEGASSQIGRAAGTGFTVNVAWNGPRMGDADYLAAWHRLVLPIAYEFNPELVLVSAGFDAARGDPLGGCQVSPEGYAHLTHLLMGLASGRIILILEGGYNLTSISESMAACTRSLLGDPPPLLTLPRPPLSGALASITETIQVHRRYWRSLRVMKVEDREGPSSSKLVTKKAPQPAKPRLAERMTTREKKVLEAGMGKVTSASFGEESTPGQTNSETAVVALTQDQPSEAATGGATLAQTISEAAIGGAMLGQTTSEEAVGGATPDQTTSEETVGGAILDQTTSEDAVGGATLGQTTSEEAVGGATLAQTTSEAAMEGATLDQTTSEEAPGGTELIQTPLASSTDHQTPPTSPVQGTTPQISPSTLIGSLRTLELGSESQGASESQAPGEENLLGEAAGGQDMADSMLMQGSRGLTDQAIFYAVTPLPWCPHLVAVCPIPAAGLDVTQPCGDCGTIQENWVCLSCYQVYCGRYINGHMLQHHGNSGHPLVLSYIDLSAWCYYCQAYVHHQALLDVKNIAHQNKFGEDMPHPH

[7] = biological target: T1, Heat shock protein HSP90 (Homo sapiens); experiment: Inhibition of HSP90 in human NCI-H1975 cells assessed as decrease in Akt Ser473 phosphorylation at 3 uM measured after 6 hrs by Western blot analysis; type: cell-based
NCI-H1975 [8] = experiment: Induction of apoptosis in human NCI-H1975 cells assessed as increase in caspase 3 activation incubated for 48 hrs by PI staining based Western blot analysis; type: functional, cell-based; details: dose 0.1-3 µM

Sequence of Histone deacetylase 1 (Q13547 whole entry, the tested form may be a part): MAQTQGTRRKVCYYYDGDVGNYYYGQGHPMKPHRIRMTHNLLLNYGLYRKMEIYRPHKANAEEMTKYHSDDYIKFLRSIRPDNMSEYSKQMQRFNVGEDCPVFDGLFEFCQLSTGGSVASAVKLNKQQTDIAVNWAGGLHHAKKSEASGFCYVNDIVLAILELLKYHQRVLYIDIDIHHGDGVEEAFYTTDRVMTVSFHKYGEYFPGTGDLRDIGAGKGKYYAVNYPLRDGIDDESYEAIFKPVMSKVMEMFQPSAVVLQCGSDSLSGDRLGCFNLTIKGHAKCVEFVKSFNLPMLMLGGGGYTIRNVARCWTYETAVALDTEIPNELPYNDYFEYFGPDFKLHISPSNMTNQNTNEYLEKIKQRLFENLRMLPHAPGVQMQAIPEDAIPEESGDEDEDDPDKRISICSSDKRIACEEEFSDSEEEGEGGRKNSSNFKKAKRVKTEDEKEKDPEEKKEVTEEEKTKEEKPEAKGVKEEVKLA

In the case of CC(C)c1cc(C(=O)N2Cc3ccc(NC(=O)CCCCCCCCC(=O)NO)cc3C2)c(O)cc1O, the IC50 (Histone deacetylase) is reported as 388.8 nM, the Activity (NCI-H1975 [1]) is reported as “Dose-dependent effect” and the inhibition [2] is reported as “Active”. For the same compound, the IC50 (Histone deacetylase 1) was 1880 nM, the Activity (NCI-H1975 [3]) was “Active” and the Activity (NCI-H1975 [4]) was “Dose-dependent effect”. The inhibition in vivo at 50 mg/kg (NCI-H1975 [5]) was 44.8%, the IC50 [6] was 4.32 nM and the inhibition [7] was “Active”. The Activity (NCI-H1975 [8]) was “Dose-dependent effect”.
